The text below walks through data of patent publication US9394297B2, “Amides as pim inhibitors” (AMGEN INC., priority 2012, dated 2016).

Structures are written as SMILES. Read-outs that look alike come from different tables or passages of the source. A value given as a limit tells only on which side of the number the result lay.

The IC50 is the concentration needed to halve the response being measured.

Experiment [1] deals with Pim-2 (Homo sapiens (Human), UniProt Q9P1W9). In words: Pim-Mn enzyme assay (HTRF, 384-well), Pim-2. The experiment is classed as biochemical. Particulars: read-out: Pim-2-Mn IC50 IP. For orientation: In TR-FRET formats the signal depends on donor and acceptor labels being close together.
Experiment [2] deals with KMS-12-BM cell lines. Put plainly: KMS12 #2 flow cytometry assay (phospho-BAD Ser112). The experiment is classed as cell-based. The note with it: Homo sapiens, 110 min; KMS-12-BM cells, pBAD Ser112 by flow cytometry, 110 min with compound; read-out: KMS-12-Flow IC50 IP. For orientation: Flow cytometry measures light scatter and fluorescence of single cells or particles in a stream.

Experiment [3] has as its target Pim-1 (Homo sapiens (Human), UniProt P11309). Put plainly: Pim-Mn enzyme assay (HTRF, 384-well), Pim-1. The experiment is classed as biochemical. Particulars: read-out: Pim-1-Mn IC50 IP.
Setting [4] is: Pim-2 enzyme 0.5 pM, ATP 1.5 μM, BAD (S112) 0.5 μM, HTRF, 22-point curve.
Where [5] appears, read: Pim-1 enzyme 5 pM, ATP 1.5 μM, BAD (S112) 0.5 μM, HTRF, 22-point curve.

Chain of Pim-1 (P11309 whole entry): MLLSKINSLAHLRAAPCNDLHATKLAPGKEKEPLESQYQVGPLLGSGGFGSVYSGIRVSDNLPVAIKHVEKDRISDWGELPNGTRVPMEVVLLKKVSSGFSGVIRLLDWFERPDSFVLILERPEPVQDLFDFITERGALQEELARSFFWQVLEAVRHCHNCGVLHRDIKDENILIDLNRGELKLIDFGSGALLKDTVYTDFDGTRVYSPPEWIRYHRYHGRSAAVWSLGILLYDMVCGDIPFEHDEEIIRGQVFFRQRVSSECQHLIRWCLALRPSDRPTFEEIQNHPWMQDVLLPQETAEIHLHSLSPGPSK
Chain of Pim-2 (Q9P1W9 whole entry): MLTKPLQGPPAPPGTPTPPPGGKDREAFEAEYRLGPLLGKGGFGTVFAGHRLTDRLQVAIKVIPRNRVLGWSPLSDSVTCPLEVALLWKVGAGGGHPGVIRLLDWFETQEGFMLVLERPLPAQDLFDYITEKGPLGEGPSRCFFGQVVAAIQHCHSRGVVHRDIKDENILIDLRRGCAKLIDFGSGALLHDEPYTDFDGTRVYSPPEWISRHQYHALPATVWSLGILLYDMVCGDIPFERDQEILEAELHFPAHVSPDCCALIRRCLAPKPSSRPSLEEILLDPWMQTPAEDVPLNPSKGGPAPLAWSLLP

As to `Cc1nc2cccc(-c3cc4c([nH]3)[C@@H](C)NC4=O)c2nc1NCC(F)(F)F` [Example 294, (6R)-6-methyl-2-(2-methyl-3-((2,2,2-trifluoroethyl)amino)-5-quinoxalinyl)-5,6-dihydropyrrolo[3,4-b]pyrrol-4(1H)-one], the IC50 in experiment [1] (setting [4]) was 2.23 nM; in experiment [2], 165 nM; in experiment [3] (setting [5]), 1.23 nM.
As for `Cc1nc2ccc(F)c(-c3cc4c([nH]3)C3(CC3)NC4=O)c2nc1NC(C)(C)C` [Example 295, 2′-(3-(tert-butylamino)-6-fluoro-2-methylquinoxalin-5-yl)-1′H-spiro[cyclopropane-1,6′-pyrrolo[3,4-b]pyrrol]-4′(5′H)-one], the IC50 in experiment [1] (setting [4]) came to 0.52 nM; in experiment [2], 41 nM; in experiment [3], 0.562 nM.
In the case of `Cc1nc2ccc(F)c(-c3cc4c([nH]3)CNC4=O)c2nc1NC(C)(C)C` [Example 296, 2-(3-(tert-butylamino)-6-fluoro-2-methyl-5-quinoxalinyl)-5,6-dihydropyrrolo[3,4-b]pyrrol-4(1H)-one], the values for the IC50 in experiment [1] (setting [4]), in experiment [2] and in experiment [3] (setting [5]) were 0.501 nM, 36.2 nM and 0.508 nM, respectively.
On the same counts, the results for `Cc1nc2cccc(-c3cc4c([nH]3)CCN(CO)C4=O)c2nc1NC(C)(C)C` [Example 299, 2-(3-(tert-butylamino)-2-methylquinoxalin-5-yl)-5-(hydroxymethyl)-6,7-dihydro-1H-pyrrolo[3,2-c]pyridin-4(5H)-one] are 9 nM, greater than 40000 nM and 7 nM.
On the same counts, the results for `Cc1nc2cccc(-c3cc4c([nH]3)CNC4=O)c2nc1NCC(F)(F)F` [Example 301, 2-(2-methyl-3-((2,2,2-trifluoroethyl)amino)-5-quinoxalinyl)-5,6-dihydropyrrolo[3,4-b]pyrrol-4(1H)-one] are 1.91 nM, 341 nM and 1.25 nM.
With `Cc1nc2cccc(-c3cc4c([nH]3)[C@@H](C)NC4=O)c2nc1NC(C)(C)CO` [Example 302, (6R)-2-(3-((2-hydroxy-1,1-dimethylethyl)amino)-2-methyl-5-quinoxalinyl)-6-methyl-5,6-dihydropyrrolo[3,4-b]pyrrol-4(1H)-one], the values for the IC50 in experiment [1], in experiment [2] and in experiment [3] were 1.45 nM, 71.2 nM and 1.84 nM, respectively.
Consider `Cc1nc2cccc(-c3cc4c([nH]3)CCCC4=O)c2nc1NC(C)(C)C` [Example 303, 2-(3-(tert-butylamino)-2-methylquinoxalin-5-yl)-6,7-dihydro-1H-indol-4(5H)-one], for which the IC50 in experiment [1] (setting [4]) was 1.47 nM; in experiment [2] it was 572 nM; in experiment [3] (setting [5]) it was 0.839 nM.
On the same counts, the results for `CC(C)(C)Nc1nc2c(-c3cc4c([nH]3)CCNC4=O)cccc2nc1N` [Example 304, 2-(2-amino-3-(tert-butylamino)quinoxalin-5-yl)-6,7-dihydro-1H-pyrrolo[3,2-c]pyridin-4(5H)-one] are 0.429 nM, 87.6 nM and 0.791 nM.
On the same counts, the results for `CC(C)(C)Nc1nc2c(-c3cc4c([nH]3)CCNC4=O)cccc2nc1CO` [Example 306, 2-(3-(tert-butylamino)-2-(hydroxymethyl)quinoxalin-5-yl)-6,7-dihydro-1H-pyrrolo[3,2-c]pyridin-4(5H)-one] are 2.26 nM, 558 nM and 2.12 nM.
On the same counts, the results for `C#Cc1nc2cccc(-c3cc4c([nH]3)CCNC4=O)c2nc1NC(C)(C)C` [Example 307, 2-(3-(tert-butylamino)-2-ethynylquinoxalin-5-yl)-6,7-dihydro-1H-pyrrolo[3,2-c]pyridin-4(5H)-one] are 1.45 nM, 590 nM and 1.63 nM.
As for `CC(C)(C)Nc1nc2c(-c3cc4c([nH]3)CCNC4=O)cccc2nc1/C=N/O` [Example 308, (E)-3-(tert-butylamino)-5-(4-oxo-4,5,6,7-tetrahydro-1H-pyrrolo[3,2-c]pyridin-2-yl)quinoxaline-2-carbaldehyde oxime], the IC50 in experiment [1] (setting [4]) worked out at 1.27 nM; in experiment [2] it was 177 nM; in experiment [3] (setting [5]), 1.05 nM.
